Laboratory results from the NIST ThermoML archive (doi:10.1021/acs.jced.8b00399).
± gives the expanded uncertainty stated by the source.

Assay: mn = molality of the nth substance listed, in mol/kg
Conditions: 99.6 kPa, Liquid; for viscosity: Capillary tube (Ostwald / Ubbelohde) method; for mass density: Vibrating tube method

CNC(C)=O [N-methylacetamide] + [Cl-].[Cl-].[Zn+2]
Conditions	mass density, 308.15 K [kg/m3]	mass density, 313.15 K [kg/m3]	viscosity, 308.15 K [mPa·s]	viscosity, 313.15 K [mPa·s]	viscosity, 318.15 K [mPa·s]
m2 = 0	946.01 ± 1.9	941.81 ± 1.9	3.57 ± 0.044	3.152 ± 0.039	2.8 ± 0.035
m2 = 0.01212	947.01 ± 1.9	942.99 ± 1.9	3.595 ± 0.044	3.169 ± 0.039	2.819 ± 0.035
m2 = 0.02085	948.03 ± 1.9	943.83 ± 1.9	3.615 ± 0.044	3.186 ± 0.039	2.834 ± 0.035
m2 = 0.04092	949.55 ± 1.9	945.27 ± 1.9	3.653 ± 0.045	3.223 ± 0.04	2.868 ± 0.035
m2 = 0.04735	950.23 ± 1.9	946.04 ± 1.9	3.669 ± 0.045	3.232 ± 0.04	2.876 ± 0.035
m2 = 0.05898	951.13 ± 1.9	946.91 ± 1.9	3.698 ± 0.045	3.255 ± 0.04	2.895 ± 0.036
m2 = 0.06108	951.43 ± 1.9	947.18 ± 1.9	3.703 ± 0.045	3.262 ± 0.04	2.9 ± 0.036
m2 = 0.07786	952.85 ± 1.9	948.65 ± 1.9	3.743 ± 0.046	3.293 ± 0.04	2.928 ± 0.036
m2 = 0.09351	954.27 ± 1.9	949.99 ± 1.9	3.778 ± 0.046	3.324 ± 0.041	2.955 ± 0.036
m2 = 0.1025	955.14 ± 1.9	950.92 ± 1.9	3.797 ± 0.047	3.347 ± 0.041	2.972 ± 0.037
m2 = 0.1083	955.59 ± 1.9	951.41 ± 1.9	3.81 ± 0.047	3.354 ± 0.041	2.982 ± 0.037
m2 = 0.1702	961.31 ± 1.9	957.1 ± 1.9	3.964 ± 0.049	3.495 ± 0.043	3.099 ± 0.038
m2 = 0.2236	966.13 ± 1.9	961.88 ± 1.9	4.112 ± 0.05	3.611 ± 0.044	3.202 ± 0.039
m2 = 0.372	979.32 ± 2	975.11 ± 2	4.544 ± 0.055	3.97 ± 0.048	3.516 ± 0.043
m2 = 0.6919	1007.77 ± 2	1003.5 ± 2	5.686 ± 0.069	4.929 ± 0.06	4.32 ± 0.052
m2 = 1.299	1060.68 ± 2.1	1056.36 ± 2.1	8.811 ± 0.1	7.487 ± 0.089	6.416 ± 0.076
